The record followed here is PubChem BioAssay AID1996.

In brackets after ≈: the same amount, converted by molar mass.

For this data set the following is noted: buffer; pH 7.4; 200.0 µM.
`O=C(COC(=O)COc1ccccc1[N+](=O)[O-])NCc1ccc2c(c1)OCO2` displayed a kinetic solubility of over 58.2 µg/mL.

Consider `O=C(Cc1ccc([N+](=O)[O-])cc1)NCc1cccnc1`, for which the kinetic solubility is over 40.7 µg/mL.

`Cc1nc2ccccc2n1Cc1ccc(Cl)cc1` yielded a kinetic solubility of 24.9 µg/mL (≈ 97 µM).

As to `CC(C)[C@H](NC(=O)c1ccccc1Cl)C(=O)OCC(=O)N1CCCCC1`, the kinetic solubility is over 57.1 µg/mL.

On to `COc1ccc(NC(=O)O/N=C/c2ccccc2Cl)cc1`, for which the solubility (kinetic) came to 17.7 µg/mL (≈ 58.1 µM).

The compound `O=C(CN1C(=O)NC2(CCCCC2)C1=O)N1CCOCC1` returned a kinetic solubility of over 44.3 µg/mL.

For orientation: solubility (kinetic) means the concentration staying in solution when a stock, usually in DMSO, is diluted into the medium.
